The record followed here is patent US20090156594A1, “HETEROCYCLIC KINASE MODULATORS” (SGX Pharmaceuticals, Inc., priority 2007, published 2009).

One experiment deals with T1, c-MET (Homo sapiens, UniProt P08581).
T1 construct: expressing the kinase domain of human Met; 6x Histidine tag (TEV-cleavable) (cleaved yes); made in house; host or cells: Sf9 insect cells
Description: MET luminescence-based enzyme assay (Kinase-Glo). Type of experiment: biochemical. The conditions noted are these: MET kinase domain, 10 μM ATP, 60 min at 21° C. The procedure:
Screening data was evaluated using the equation: Z′=1-[3*(σ++σ−)/|μ+−μ−|] […] The subscript designates positive or negative controls. The Z′ score for a robust screening assay should be ≧0.50. The typical threshold=μ+−3*σ+. Any value that falls below the threshold was designated a “hit”.
MET Luminescence-Based Enzyme Assay
MET kinase (see below), Kinase-Glom (Promega Cat#V6712).
(diluted 50 μl into total of 10 ml miliQH2O daily=50 μM ATP working stock); 1% BSA (1 g BSA in 100 ml 0.1M HEPES, pH 7.5, stored at −20° C.), 100 mM MgCl2; 200 μM Staurosporine, 2× Kinase-Glo™ reagent (made fresh or stored at −20° C.).
Standard Assay Setup for 384-well format (20 μl kinase reaction, 40 μl detection reaction): 10 mM MgCl2; 0.3 mg/mil poly Glu-Tyr; 0.1% BSA; 1 μl test compound (in DMSO); 0.4 μg/ml MET kinase; 10 μM ATP; 100 mM HEPES buffer. Positive controls contained DMSO with no test compound. Negative controls contained […] staurosporine. The kinase reactions were initiated at time t=0 by the addition of ATP. Kinase reactions were incubated at 21° C. for 60 min, then 20 μl of Kinase-Glo™ reagent were added to each well to quench the kinase reaction and initiate the luminescence reaction. After a 20 min incubation at 21° C., the luminescence was detected in a plate-reading luminometer.
The cell pellets produced from half of a 12 L Sf9 insect cell culture expressing the kinase domain of human Met were resuspended in a buffer containing 50 mM Tris-HCl pH 7.7 and 250 mM NaCl, in a volume of approximately 40 ml per 1 L of original culture. […] The suspension was stirred for 1 hour at 4° C. Debris was removed by centrifugation for 30 minutes at 39,800×g at 4° C. […] The sample was then poured into a drip column at 4° C. and washed with 10 column volumes of 50 mM Tris-HCl pH 7.8, 500 mM NaCl, 10% Glycerol, […], and 10 mM Methionine. The protein was eluted using a step gradient with two column volumes each of the same buffer containing 50 mM, 200 mM, and 500 mM Imidazole, sequentially. […] The step gradient was run with 15% and then 80% of the B-side (A-side=50 mM Tris-HCl pH 7.8, 500 mM NaCl, 10% Glycerol, 10 mM Imidazole, and 10 mM Methionine; B-side=50 mM Tris-HCl pH 7.8, […], 10% Glycerol, 500 mM Imidazole, and 10 mM Methionine) for 4 column volumes each.
For orientation: Kinase-Glo measures the ATP left after a reaction by luminescence.

Another experiment deals with GTL16 cells. Put plainly: 96-well XTT cell survival assay (GTL16 cells). To be noted: Homo sapiens, GTL 16, 72 hours. Type of experiment: cell-based. The procedure:
GTL16 cells were maintained in DMEM Medium supplemented with 10% fetal bovine serum (FBS) 2 mM L-Glutamine and 100 units penicillin/100 μg streptomycin, at 37° C. in 5% CO2.
Compounds were Tested in the Following Assays in Duplicate.
96-well XTT assay (GTL16 cells): One day prior to assay the growth media was aspirated off and assay media was added to cells. On the day of the assay, the cells were grown in assay media containing various concentrations of compounds (duplicates) on a 96-well flat bottom plate for 72 hours at 37° C. in 5% CO2. The starting cell number was 5000 cells per well and volume was 120 μl. At the end of the 72-hour incubation, 40 μl of XTT labeling mixture (50:1 solution of sodium 3′-[1-(phenylaminocarbonyl)-3,4-tetrazolium]-bis(4-methoxy-6-nitro) benzene sulfonic acid hydrate and Electron-coupling reagent: PMS (N-methyl dibenzopyrazine methyl sulfate) were added to each well of the plate. After an additional 5 hours of incubation at 37° C., the absorbance reading at 450 nm with a background correction of 650 nm was measured with a spectrophotometer.
(In general: Formazan colour is commonly taken as a measure of viable cells.)

T1 sequence (P08581 1078-1345 limits assumed): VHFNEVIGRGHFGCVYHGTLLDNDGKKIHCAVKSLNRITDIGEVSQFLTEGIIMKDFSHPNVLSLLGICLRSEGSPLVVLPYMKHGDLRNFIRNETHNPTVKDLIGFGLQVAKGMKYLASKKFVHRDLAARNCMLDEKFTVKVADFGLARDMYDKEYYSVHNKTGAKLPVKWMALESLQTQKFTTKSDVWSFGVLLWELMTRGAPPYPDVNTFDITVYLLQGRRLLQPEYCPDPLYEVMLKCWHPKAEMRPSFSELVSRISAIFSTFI

What is called IC50 is the midpoint of a concentration-inhibition curve. A higher IC50 goes with a need for much substance. With `CC(C)NCc1nn2c(Cc3ccc4ncc(-c5cnn(C)c5)cc4c3)nnc2s1`, the IC50 is below 100 nM against c-MET and at most 100 nM in the experiment on GTL16 cells.
